Reference: US20240327433A1, “PYRIMIDOPYRAN COMPOUND” (Medshine Discovery Inc., priority 2021, published 2024)
Structures can show the parent of a compound that is named as a salt.

Assays:
p-ERK in GP2D cells = assay: Assay of p-ERK inhibition in GP2D cells (HTRF); format: cell-based; conditions: 1 hour incubation
Method: The cell plate was inoculated in a carbon dioxide incubator at 37° C. overnight; • 2) 2 μL of the compound was weighed and added to 78 μL of the cell medium. After the mixture was mixed thoroughly, 20 μL of the solution of compound was weighed and added to the corresponding well of the cell plate. The cell plate was placed back to the carbon dioxide incubator and incubated for another 1 hour; • 3) After completion of the incubation, the cell supernatant was discarded. 50 μL of 1× cell lysate was added to each well. The mixture was incubated with shaking at room temperature for 30 minutes; • 4) Phospho-ERK1/2 Eu Cryptate antibody and Phospho-ERK1/2 d2 antibody were diluted 20-fold with detection buffer; • 5) 16 μL of cell lysate supernatant was weighed and added into each well of a new 384 white microwell plate, and then 2 μL of the diluted solution of Phospho-ERK1/2 Eu Cryptate antibody and 2 μL of the diluted solution of Phospho-ERK1/2 d2 antibody dilution were added. The mixture was incubated at room temperature for at least 4 hours; • 6) After completion of the incubation, HTRF was read with multi-label analyzer: excitation: 320 nm, emission: 615 nm, 665 nm; • 7). IC50 of the compounds to be assayed was calculated.

[1] = Pharmacokinetic study of oral and intravenously injected compounds in CD-1 mouse; format: in vivo
Method: To assay the pharmacokinetics of oral and intravenously injected compounds in CD-1 mouse. The assay compound was mixed with 5% DMSO+95% (10% HP-β-CD) aqueous solution. The mixture was vortexed and sonicated to prepare a clear solution of 0.5 mg/mL (intravenous) or a clear solution of 3 mg/mL (oral). The clear solution was filtered by a microporous membrane for use. […] Whole blood was collected for a certain period of time, and prepared to obtain plasma. Drug concentration was analyzed by LC-MS/MS method, and pharmacokinetic parameters were calculated by Phoenix WinNonlin software (Pharsight, USA).

KRAS^G12D GP2D = assay: Anti-cell proliferation effect in tumor cell line GP2D (CellTiter-Glo 3D); format: cell-based; conditions: 120 hours
Method: (§1) In this assay, the effect of the compounds on inhibiting cell proliferation was studied by detecting the effect of the compounds on the cell activity in vitro in the tumor cell lines AsPC-1 and GP2D.
(§2) The tumor cell lines were cultured in a 37° C., 5% CO2 incubator according to the culture conditions indicated in the culture method. Cells were passaged regularly, and cells in logarithmic growth phase were used for plating.
(§3) Cells were stained with trypan blue and viable cells were counted.
(§4) The cell concentration was adjusted to an appropriate concentration.
(§5) To each well of a ULA culture plate was added 135 μL of cell suspension. To the blank control well was added the same volume of culture medium without cells.
(§6) After plating, the ULA culture plate was immediately centrifuged at room temperature at 1000 rpm for 10 minutes. Note: After completion of the centrifugation, subsequent operations must be processed carefully to avoid unnecessary shocks.
(§7) The culture plate was incubated in a 37° C., 5% CO2, 100% relative humidity incubator overnight.
(§8) 10× compound working solution (10× working solution in DMSO) was formulated, and then to the ULA culture plate was add 15 μL of 10× compound working solution, and to the vehicle control and blank control was added 15 μL of DMSO-cell culture medium mixture, respectively. […]
(§9) The luminescent signal was detected on a 2104 EnVision plate reader. […]

KRAS^G12D AsPC-1 = assay: Anti-cell proliferation effect in tumor cell line AsPC-1 (CellTiter-Glo 3D); format: cell-based; conditions: Homo sapiens, ASPC1, AsPC-1, 120 hours
Method: as §1, §2, §3, §4, §5, §6, §7, §8, §9

KRAS^G12D = KRAS^G12D (Homo sapiens (Human), UniProt P01116, G12D); assay: Assay of activity of inhibiting KRAS^G12D (TR-FRET, SOS/GTP nucleotide exchange); format: biochemical
Sequence of KRAS^G12D (P01116-2 other isoform, or with tags, fused parts or gaps G12D): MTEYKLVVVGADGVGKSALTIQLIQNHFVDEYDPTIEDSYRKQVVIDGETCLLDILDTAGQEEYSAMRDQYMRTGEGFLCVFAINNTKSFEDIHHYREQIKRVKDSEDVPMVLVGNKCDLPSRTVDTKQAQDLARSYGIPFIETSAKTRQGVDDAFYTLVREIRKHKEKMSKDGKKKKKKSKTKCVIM
Method: 20 mL of 1000 mM HEPES, 20 mL of 500 mM EDTA, 10 mL of 5 M sodium chloride, 0.1 mL of 100% Tween 20, and 949.9 mL of water were weighed and formulated to 1 L of solution. The solution was sterilized by filtration and stored at 4° C.
20 mL of 1000 mM HEPES, 10 mL of 1000 mM magnesium chloride, 30 mL of 5 M sodium chloride, 0.05 mL of 100% Tween 20, and 939.95 mL of water were weighed and formulated to 1 L of solution. The solution was sterilized by filtration and stored at 4° C.
9.5 μL of 95 μM KRAS^G12D protein and 440.5 μL of KRAS nucleotide exchange buffer were weighed and mixed. The mixture was incubated at room temperature for 1 hour, and then formulated to […] of solution together with 8.4 μL of 17.9 μM Tb-SA, 1.8 μL of 5 mM Bodipy GDP and 9539.8 μL of KRAS assay buffer. After mixing, the solution was left to stand at room temperature for 6 hours, and stored at −80° C. • b. Assay reagents:
73.3 μL of KRAS/Bodipy GDP/Tb-SA mixture and 2126.7 μL of KRAS assay buffer were weighed and formulated to 2200 μL of solution.
1.59 μL of 166 μM SOS protein, 198 μL of 100 mM GTP and 2000.41 μL of KRAS assay buffer were weighed and formulated to 2200 μL of solution.
• 1) The concentration of a stock solution of the control compound was 1 mM, and the concentration of a stock solution of compounds to be assayed was 10 mM. […]

[2] = male, CD-1, plasma, intravenous (IV), about 2 mg/kg
[3] = male, CD-1, plasma, oral (PO), about 30 mg/kg

| SMILES | IC50 (p-ERK in GP2D cells) [µM] | further results |
| --- | --- | --- |
| Nc1ccc(C(F)(F)F)c([C@H]2Cc3nc(OC[C@@]45CCCN4C[C@H](F)C5)nc(N4CC5CCC(C4)N5)c3CO2)c1F (single isomer, unassigned) [Compound 20B] | 0.0013 | AUC(0-t) [1, 2]: 0.371 µM·h; C0 [1, 2]: 449 nM; Vd [1, 2]: 97.2 L/kg; clearance [1, 2]: 138 mL/min/kg; half-life [1, 2]: 11.2 h; AUC(0-inf) [1, 3]: 4.71 µM·h; Cmax [1, 3]: 2100 nM; half-life [1, 3]: 14.4 h; F ([1]; oral (PO), about 30 mg/kg, oral bioavailability): 85% |
| Cc1cc(N)c(F)c(C2Cc3nc(OC[C@@]45CCCN4C[C@H](F)C5)nc(N4CC5CC(C4)N5)c3CO2)c1C(F)(F)F (stereo partly shown) [Compound 2 hydrochloride] | – | IC50 (KRAS^G12D GP2D): 0.332 µM; IC50 (KRAS^G12D AsPC-1): 1.86 µM |
| Cc1cc(N)c(F)c(C2Cc3nc(OC[C@@]45CCCN4C[C@H](F)C5)nc(N4CC5C=CC(C4)N5)c3CO2)c1C(F)(F)F (stereo partly shown) [Compound 7 hydrochloride] | 0.0011 | IC50 (KRAS^G12D): 0.0001 µM |
| Oc1cc(C2Cc3nc(OC[C@@]45CCCN4C[C@H](F)C5)nc(N4CC5CCC(C4)N5)c3CO2)c2ccccc2c1 (stereo partly shown) [Compound 8 hydrochloride] | 0.078 | IC50 (KRAS^G12D): 0.0783 µM |
| Cc1cc(N)c(F)c(C2Cc3nc(OC[C@@]45CCCN4C[C@H](F)C5)nc(N4CC5CCC(C4)N5)c3CO2)c1C(F)(F)C(F)(F)F (stereo partly shown) [Compound 12 formate] | 0.0209 | – |
| Cc1cc(N)c(F)c(C2Cc3nc(OC[C@@]45CCCN4C[C@H](F)C5)nc(N4CC5CCC(C4)N5)c3CO2)c1Cl (stereo partly shown) [Compound 14 hydrochloride] | 0.0052 | – |
| Cc1cc(N)c(F)c(C2Cc3nc(OC[C@@]45CCCN4C[C@H](F)C5)nc(N4CC5CCC(C4)N5)c3CO2)c1Br (stereo partly shown) [Compound 15 hydrochloride] | 0.0084 | – |
| Cc1cc(N)c(F)c(C2Cc3nc(OC[C@@]45CCCN4C[C@H](F)C5)nc(N4CC5CCC(C4)N5)c3CO2)c1I (stereo partly shown) [Compound 16 hydrochloride] | 0.0029 | – |
| C#Cc1c(C)cc(N)c(F)c1C1Cc2nc(OC[C@@]34CCCN3C[C@H](F)C4)nc(N3CC4CCC(C3)N4)c2CO1 (stereo partly shown) [Compound 17] | 0.0271 | – |
| Cc1cc(N)c(F)c(C2Cc3nc(OC[C@@]45CCCN4C[C@H](F)C5)nc(N4CC5CCC(C4)N5)c3CO2)c1C#N (stereo partly shown) [Compound 18] | 0.0664 | – |
| C=Cc1c(C)cc(N)c(F)c1C1Cc2nc(OC[C@@]34CCCN3C[C@H](F)C4)nc(N3CC4CCC(C3)N4)c2CO1 (stereo partly shown) [Compound 19 hydrochloride] | 0.0175 | – |
| Nc1cc(Cl)c(Br)c(C2Cc3nc(OC[C@@]45CCCN4C[C@H](F)C5)nc(N4CC5CCC(C4)N5)c3CO2)c1F (stereo partly shown) [Compound 21 hydrochloride] | 0.0026 | – |
| Nc1cc(F)c(C(F)(F)F)c(C2Cc3nc(OC[C@@]45CCCN4C[C@H](F)C5)nc(N4CC5CCC(C4)N5)c3CO2)c1F (stereo partly shown) [Compound 22 hydrochloride] | 0.0027 | – |
| Cc1cc(N)nc(C2Cc3nc(OC[C@@]45CCCN4C[C@H](F)C5)nc(N4CC5CCC(C4)N5)c3CO2)c1C(F)(F)F (stereo partly shown) [Compound 23 formate] | 0.0234 | – |
| Cc1cc(N)c(F)c(C2Cc3nc(OC[C@@]45CCCN4C[C@H](F)C5)nc(N4CC5CCC(C4)N5)c3CO2)c1C (stereo partly shown) [Compound 25 hydrochloride] | 0.0964 | – |
| Cc1cc(N)c(F)c(C2Cc3nc(OC[C@@]45CCCN4C[C@H](F)C5)nc(N4CC5CCC(C4)N5)c3CO2)c1C1CC1 (stereo partly shown) [Compound 27 hydrochloride] | 0.118 | – |
